TGI data for nine molecules are collected here from PubChem BioAssay (NCI).

Molecules are shown by their SMILES.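 Following 48 hours of exposure in 96-well plates, responses at five concentrations were used to interpolate endpoints linearly. TGI: total growth inhibition.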 A value given as a limit tells only on which side of the number the result lay.

Test systems include A498 renal; CCRF-CEM leukemia; DU-145 prostate; HCT-15 colon; K-562 leukemia; LOX IMVI melanoma; M14 melanoma; MCF7 breast; NCI-H23 lung; NCI/ADR-RES ovarian; SK-MEL-2 melanoma; SK-OV-3 ovarian; SW-620 colon; U251 CNS; UACC-257 melanoma; UACC-62 melanoma.
Common to all, as to assay: NCI tumour cell line growth inhibition, 48 h

With `O=c1cc(-c2cccc(Br)c2)[nH]c2cc3c(cc12)OCO3`, the TGI with A498 renal was 13.8 µM; in the assay on CCRF-CEM leukemia it was greater than 100 µM; in the assay on DU-145 prostate it was 18.1 µM; with HCT-15 colon, greater than 77.6 µM; in the assay on K-562 leukemia it was greater than 100 µM; in the assay on LOX IMVI melanoma, 17.4 µM. Further, the TGI was 24.5 µM with M14 melanoma; greater than 100 µM in the assay on MCF7 breast; 12.8 µM in the assay on NCI-H23 lung; 30.7 µM with NCI/ADR-RES ovarian; 6.67 µM in the assay on SK-MEL-2 melanoma; 17 µM with SK-OV-3 ovarian. Besides, the TGI is greater than 100 µM in the assay on SW-620 colon, 11.4 µM in the assay with U251 CNS, greater than 100 µM in the assay with UACC-257 melanoma and 4.83 µM in the assay on UACC-62 melanoma.

Take `CC(=O)Oc1cc2c(n(C)c1=O)CCC2`: the TGI in the assay with A498 renal, in the assay with CCRF-CEM leukemia, with DU-145 prostate, with HCT-15 colon, in the assay with K-562 leukemia and with LOX IMVI melanoma was greater than 100 µM throughout. For the same molecule, the TGI with M14 melanoma, with MCF7 breast, in the assay with NCI-H23 lung, in the assay on NCI/ADR-RES ovarian, in the assay on SK-MEL-2 melanoma and with SK-OV-3 ovarian was greater than 100 µM in each case. In addition, the TGI in the assay with SW-620 colon, in the assay on U251 CNS and in the assay with UACC-257 melanoma was greater than 100 µM each time.

On to `N=c1oc2ccc(Cl)cc2cc1C(=O)NC1CCCCC1`, for which the TGI in the assay on A498 renal, with CCRF-CEM leukemia, in the assay with DU-145 prostate, in the assay on HCT-15 colon, with K-562 leukemia and in the assay on LOX IMVI melanoma was greater than 100 µM in each case. Further, the TGI in the assay with M14 melanoma, with MCF7 breast, in the assay on NCI-H23 lung, with NCI/ADR-RES ovarian, with SK-MEL-2 melanoma and with SK-OV-3 ovarian was greater than 100 µM throughout. Moreover, the TGI in the assay on SW-620 colon, with U251 CNS, with UACC-257 melanoma and with UACC-62 melanoma was greater than 100 µM throughout.

For `NC(=O)N=Nc1c2ccccc2n2[nH]ccc12`, the TGI in the assay with A498 renal, with CCRF-CEM leukemia, in the assay with DU-145 prostate, in the assay on HCT-15 colon, in the assay on K-562 leukemia and in the assay with LOX IMVI melanoma was greater than 100 µM throughout. Further, the TGI with M14 melanoma was greater than 100 µM; in the assay on MCF7 breast it was 66.7 µM; with NCI-H23 lung, greater than 100 µM; in the assay with NCI/ADR-RES ovarian it was greater than 100 µM; in the assay with SK-MEL-2 melanoma, greater than 100 µM; with SK-OV-3 ovarian, greater than 100 µM. The TGI with SW-620 colon, with U251 CNS, in the assay on UACC-257 melanoma and in the assay on UACC-62 melanoma was greater than 100 µM each time.

Regarding `Cc1c(C=C(C#N)C#N)c(=O)n(C)c(=O)n1C`, the TGI was greater than 100 µM with A498 renal; 94.8 µM in the assay with CCRF-CEM leukemia; greater than 100 µM in the assay on DU-145 prostate; greater than 100 µM in the assay with HCT-15 colon; greater than 100 µM with K-562 leukemia; greater than 100 µM in the assay with LOX IMVI melanoma. The TGI in the assay with M14 melanoma, with MCF7 breast, in the assay on NCI-H23 lung, with NCI/ADR-RES ovarian, with SK-MEL-2 melanoma and in the assay with SK-OV-3 ovarian was greater than 100 µM throughout. Further, the TGI with SW-620 colon, in the assay with U251 CNS, with UACC-257 melanoma and with UACC-62 melanoma was greater than 100 µM throughout.

For the molecule `C=[N+](CNC(=O)CNC(=O)C(Cc1ccccc1)NC(=O)OC(C)(C)C)C(=O)CNC(=O)C(Cc1ccccc1)NC(=O)OC(C)(C)C` (stereo unspecified), the TGI in the assay with A498 renal, in the assay with CCRF-CEM leukemia, in the assay with DU-145 prostate, with HCT-15 colon, in the assay with K-562 leukemia and in the assay on LOX IMVI melanoma was greater than 100 µM throughout. Moreover, the TGI in the assay on M14 melanoma, in the assay with MCF7 breast, with NCI-H23 lung, in the assay with NCI/ADR-RES ovarian, with SK-MEL-2 melanoma and with SK-OV-3 ovarian was greater than 100 µM each time. Further, the TGI in the assay with SW-620 colon, in the assay with UACC-257 melanoma and in the assay with UACC-62 melanoma was greater than 100 µM throughout.

For the molecule `S=c1sscc1N1CCSc2ssc(=S)c21`, the TGI in the assay with A498 renal was 77.4 µM; in the assay with CCRF-CEM leukemia, greater than 100 µM; with DU-145 prostate it was 81.6 µM; in the assay with HCT-15 colon, greater than 100 µM; with K-562 leukemia it was greater than 100 µM; in the assay with LOX IMVI melanoma, greater than 100 µM. For the same molecule, the TGI in the assay with M14 melanoma was greater than 100 µM; with MCF7 breast, greater than 100 µM; in the assay with NCI-H23 lung it was 69.8 µM; in the assay on NCI/ADR-RES ovarian, greater than 100 µM; with SK-MEL-2 melanoma, greater than 100 µM; in the assay on SW-620 colon, greater than 100 µM. For the same molecule, the TGI in the assay with U251 CNS was 38.2 µM; in the assay with UACC-257 melanoma it was greater than 100 µM; in the assay with UACC-62 melanoma, greater than 100 µM.

Consider `CCCC(=O)Oc1cc(OC(=O)CCC)c2c(C)cc(=O)oc2c1`, for which the TGI in the assay with A498 renal, in the assay on CCRF-CEM leukemia, in the assay with DU-145 prostate, in the assay with HCT-15 colon, with K-562 leukemia and in the assay on LOX IMVI melanoma was greater than 100 µM each time. For the same molecule, the TGI in the assay on M14 melanoma, in the assay with MCF7 breast, in the assay with NCI-H23 lung, in the assay with NCI/ADR-RES ovarian, in the assay with SK-MEL-2 melanoma and in the assay on SK-OV-3 ovarian was greater than 100 µM throughout. The TGI in the assay with SW-620 colon, in the assay on U251 CNS, in the assay with UACC-257 melanoma and in the assay with UACC-62 melanoma was greater than 100 µM throughout.

In the case of `COc1ccccc1NC1=NCC(C)S1` (stereo unspecified), the TGI in the assay on A498 renal, in the assay with CCRF-CEM leukemia, with DU-145 prostate, in the assay with HCT-15 colon, with K-562 leukemia and in the assay with LOX IMVI melanoma was greater than 100 µM each time. In addition, the TGI with M14 melanoma, in the assay on MCF7 breast, in the assay with NCI-H23 lung, in the assay with NCI/ADR-RES ovarian, in the assay with SK-MEL-2 melanoma and with SK-OV-3 ovarian was greater than 100 µM each time. Moreover, the TGI in the assay on SW-620 colon, in the assay on U251 CNS, with UACC-257 melanoma and in the assay on UACC-62 melanoma was greater than 100 µM in each case.
